From US20240425464A1, “Substituted Monohydrazides as Potent Antifungal Agents” (University of Kentucky Research Foundation, priority 2023, published 2024)
In brackets after ≈: the same amount, converted by molar mass. Where two headings read alike, the source gives them in different places.

Legend:
Assay in all cases: MIC determination by in vitro antifungal assay
Format in all cases: cell-based, Candida auris
[1] = system: C. auris strain AR Bank #390 (L)
How it was run: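 Broth double-dilution MIC in RPMI 1640 buffered to pH 7.0 with 0.165 M MOPS, 35° C. Inoculum adjusted to OD600 0.12 (~1×10^6 CFU/mL) then diluted 1:100; compounds tested from 0.06 to 31.3 µg/mL.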

C. auris AR Bank #386 = system: C. auris AR Bank #386
How it was run: (§1)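 Clinical AR Bank strains; incubation at 35° C. Medium is RPMI 1640 with L-glutamine, without sodium bicarbonate, held at pH 7.0 by 0.165 M MOPS; yeast suspensions at OD600 0.12 (˜1×10^6 CFU/mL) are diluted 1:100 before use.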

C. auris AR Bank #381 = system: C. auris AR Bank #381
How it was run: as §1

C. auris AR Bank #383 = system: C. auris AR Bank #383
How it was run: as §1

C. auris AR Bank #382 = system: C. auris AR Bank #382
How it was run: as §1

C. auris AR Bank #388 = system: C. auris AR Bank #388
How it was run: as §1

C. auris AR Bank #389 = system: C. auris AR Bank #389
How it was run: as §1

C. auris AR Bank #385 = system: C. auris AR Bank #385
How it was run: as §1

C. auris AR Bank #387 = system: C. auris AR Bank #387
How it was run: as §1

[2] = C. auris AR Bank # 390 (L) (Table 2B)
[3] = strain L = C. auris AR Bank # 0390 (Tables 1A/1B)
[4] = C. auris AR Bank # 386 (Table 2B)
[5] = C. auris AR Bank # 381 (Table 2B)
[6] = C. auris AR Bank # 383 (Table 2B)
[7] = C. auris AR Bank # 382 (Table 2B)
[8] = C. auris AR Bank # 388 (Table 2B)
[9] = C. auris AR Bank # 389 (Table 2B)
[10] = C. auris AR Bank # 385 (Table 2B)
[11] = C. auris AR Bank # 387 (Table 2B)
[12] = Candidozyma auris, C. auris AR Bank # 390 (L) (Table 2B), read-out: MIC
[13] = Candidozyma auris, strain L = C. auris AR Bank # 0390 (Tables 1A/1B), read-out: MIC
[14] = Candidozyma auris, C. auris AR Bank # 386 (Table 2B), read-out: MIC
[15] = Candidozyma auris, C. auris AR Bank # 381 (Table 2B), read-out: MIC
[16] = Candidozyma auris, C. auris AR Bank # 383 (Table 2B), read-out: MIC
[17] = Candidozyma auris, C. auris AR Bank # 382 (Table 2B), read-out: MIC
[18] = Candidozyma auris, C. auris AR Bank # 388 (Table 2B), read-out: MIC
[19] = Candidozyma auris, C. auris AR Bank # 389 (Table 2B), read-out: MIC
[20] = Candidozyma auris, C. auris AR Bank # 385 (Table 2B), read-out: MIC
[21] = Candidozyma auris, C. auris AR Bank # 387 (Table 2B), read-out: MIC
[22] = Candidozyma auris, C. auris AR Bank #390 (L), read-out: MIC
[23] = Candidozyma auris, C. auris AR Bank #386, read-out: MIC
[24] = Candidozyma auris, C. auris AR Bank #381, read-out: MIC
[25] = Candidozyma auris, C. auris AR Bank #383, read-out: MIC
[26] = Candidozyma auris, C. auris AR Bank #382, read-out: MIC
[27] = Candidozyma auris, C. auris AR Bank #388, read-out: MIC
[28] = Candidozyma auris, C. auris AR Bank #389, read-out: MIC
[29] = Candidozyma auris, C. auris AR Bank #385, read-out: MIC
[30] = Candidozyma auris, C. auris AR Bank #387, read-out: MIC

| Compound | MIC [1, 2] [μg/mL^−1] | MIC [1, 3] [μg/mL^−1] | MIC (C. auris AR Bank #386; [4]) [μg/mL^−1] | MIC (C. auris AR Bank #381; [5]) [μg/mL^−1] | MIC (C. auris AR Bank #383; [6]) [μg/mL^−1] | MIC (C. auris AR Bank #382; [7]) [μg/mL^−1] | MIC (C. auris AR Bank #388; [8]) [μg/mL^−1] | MIC (C. auris AR Bank #389; [9]) [μg/mL^−1] | MIC (C. auris AR Bank #385; [10]) [μg/mL^−1] | MIC (C. auris AR Bank #387; [11]) [μg/mL^−1] | MIC [1, 13] [µg/mL] | MIC [1, 22] [µg/mL] | MIC (C. auris AR Bank #386; [23]) [µg/mL] | MIC (C. auris AR Bank #381; [24]) [µg/mL] | MIC (C. auris AR Bank #383; [25]) [µg/mL] | MIC (C. auris AR Bank #382; [26]) [µg/mL] | MIC (C. auris AR Bank #388; [27]) [µg/mL] | MIC (C. auris AR Bank #389; [28]) [µg/mL] | MIC (C. auris AR Bank #385; [29]) [µg/mL] | MIC (C. auris AR Bank #387; [30]) [µg/mL] | also measured |
| --- | --- | --- | --- | --- | --- | --- | --- | --- | --- | --- | --- | --- | --- | --- | --- | --- | --- | --- | --- | --- | --- |
| O=C(NNc1ccc(Cl)cc1)c1ccc(F)cn1 [Compound 3e] | 7.8 | 7.8 | 7.8 | 7.8 | 3.9 | 7.8 | 7.8 | 7.8 | 1.95 | 7.8 |  |  |  |  |  |  |  |  |  |  |  |
| O=C(NNc1ccc(F)cc1)c1nc(F)ccc1F [Compound 8d] |  |  |  |  |  |  |  |  |  |  | 0.98 (≈ 3.67 µM) |  |  |  |  |  |  |  |  |  | MIC [1, 12]: 1.95 µg/mL (≈ 7.3 µM); MIC (C. auris AR Bank #386; [14]): 0.98 µg/mL (≈ 3.67 µM); MIC (C. auris AR Bank #381; [15]): 0.98 µg/mL (≈ 3.67 µM); MIC (C. auris AR Bank #383; [16]): 0.98 µg/mL (≈ 3.67 µM); MIC (C. auris AR Bank #382; [17]): 0.98 µg/mL (≈ 3.67 µM); MIC (C. auris AR Bank #388; [18]): 0.49 µg/mL (≈ 1.83 µM); MIC (C. auris AR Bank #389; [19]): 0.98 µg/mL (≈ 3.67 µM); MIC (C. auris AR Bank #385; [20]): 0.24 µg/mL (≈ 0.898 µM); MIC (C. auris AR Bank #387; [21]): 0.49 µg/mL (≈ 1.83 µM) |
| O=C(NNc1cc(Cl)cc(Cl)c1)c1ccccn1 [Compound 2j] |  |  |  |  |  |  |  |  |  |  | 1.95 (≈ 6.91 µM) | 3.9 (≈ 13.8 µM) | 1.98 (≈ 7.02 µM) | 3.9 (≈ 13.8 µM) | 1.95 (≈ 6.91 µM) | 0.98 (≈ 3.47 µM) | 3.9 (≈ 13.8 µM) | 1.95 (≈ 6.91 µM) | 1.95 (≈ 6.91 µM) | 0.98 (≈ 3.47 µM) |  |
| COc1cccc(NNC(=O)c2cnccn2)c1 [Compound 9c] |  |  |  |  |  |  |  |  |  |  | 0.98 (≈ 4.01 µM) | 0.98 (≈ 4.01 µM) | 0.49 (≈ 2.01 µM) | 1.95 (≈ 7.98 µM) | 1.95 (≈ 7.98 µM) | 0.98 (≈ 4.01 µM) | 3.9 (≈ 16 µM) | 0.98 (≈ 4.01 µM) | 7.8 (≈ 31.9 µM) | 0.98 (≈ 4.01 µM) |  |
| O=C(NNc1ccc(Cl)cc1)c1nc(F)ccc1F [Compound 8e] | 7.8 | 7.8 | 15.6 | 7.8 | 7.8 | 7.8 | 15.6 | 7.8 | 3.9 | 7.8 |  |  |  |  |  |  |  |  |  |  |  |
| O=C(NNc1ccc(Cl)cc1)c1cccc(F)n1 [Compound 5e] | 7.8 | 7.8 | 7.8 | 7.8 | 3.9 | 7.8 | 7.8 | 7.8 | 3.9 | 7.8 |  |  |  |  |  |  |  |  |  |  |  |
| O=C(NNc1cccc(Cl)c1)c1cnccn1 [Compound 9b] |  |  |  |  |  |  |  |  |  |  | 0.98 (≈ 3.94 µM) | 0.49 (≈ 1.97 µM) | ≤ 0.06 | 0.49 (≈ 1.97 µM) | 0.24 (≈ 0.965 µM) | 0.12 (≈ 0.483 µM) | 0.24 (≈ 0.965 µM) | 0.24 (≈ 0.965 µM) | 0.24 (≈ 0.965 µM) | 0.24 (≈ 0.965 µM) |  |
| O=C(NNc1ccc(F)cc1F)c1ccccn1 [Compound 2g] |  |  |  |  |  |  |  |  |  |  | 0.12 (≈ 0.482 µM) | 0.12 (≈ 0.482 µM) | 0.49 (≈ 1.97 µM) | 0.49 (≈ 1.97 µM) | 0.49 (≈ 1.97 µM) | 0.49 (≈ 1.97 µM) | 0.12 (≈ 0.482 µM) | 0.24 (≈ 0.963 µM) | 0.49 (≈ 1.97 µM) | 0.12 (≈ 0.482 µM) |  |
| C[C@@H]1[C@H](O)[C@@H](C)/C=C/C=C/C=C/C=C/C=C/C=C/C=C/[C@H](O[C@@H]2O[C@H](C)[C@@H](O)[C@H](N)[C@@H]2O)C[C@@H]2O[C@](O)(C[C@@H](O)C[C@@H](O)[C@H](O)CC[C@@H](O)C[C@@H](O)CC(=O)O[C@H]1C)C[C@H](O)[C@H]2C(=O)O [AmB, amphotericin B, reference compound] | 1.95 | 1.95 | 0.98 | 0.98 | 1.95 | 0.98 | 1.95 | 1.95 | 1.95 | 0.98 |  |  |  |  |  |  |  |  |  |  | MIC ([1]; C. auris AR Bank #390 (L)): 1.95 μg/mL^−1; MIC (C. auris AR Bank #386; C. auris AR Bank #386): 0.98 μg/mL^−1; MIC (C. auris AR Bank #381; C. auris AR Bank #381): 0.98 μg/mL^−1; MIC (C. auris AR Bank #383; C. auris AR Bank #383): 1.95 μg/mL^−1; MIC (C. auris AR Bank #382; C. auris AR Bank #382): 0.98 μg/mL^−1; MIC (C. auris AR Bank #388; C. auris AR Bank #388): 1.95 μg/mL^−1; MIC (C. auris AR Bank #389; C. auris AR Bank #389): 1.95 μg/mL^−1; MIC (C. auris AR Bank #385; C. auris AR Bank #385): 1.95 μg/mL^−1; MIC (C. auris AR Bank #387; C. auris AR Bank #387): 0.98 μg/mL^−1 |
| O=C(NNc1cc(F)ccc1F)c1ccccn1 [Compound 2h] |  |  |  |  |  |  |  |  |  |  | 0.98 (≈ 3.93 µM) | 0.98 (≈ 3.93 µM) | 0.12 (≈ 0.482 µM) | 1.95 (≈ 7.82 µM) | 0.49 (≈ 1.97 µM) | 0.24 (≈ 0.963 µM) | 0.49 (≈ 1.97 µM) | 0.49 (≈ 1.97 µM) | 0.49 (≈ 1.97 µM) | 0.49 (≈ 1.97 µM) |  |
| COc1ccc(NNC(=O)c2nc(F)ccc2F)cc1 [Compound 8f] |  |  |  |  |  |  |  |  |  |  | 0.98 (≈ 3.51 µM) |  |  |  |  |  |  |  |  |  | MIC [1, 12]: 31.3 µg/mL (≈ 112 µM); MIC (C. auris AR Bank #386; [14]): 0.98 µg/mL (≈ 3.51 µM); MIC (C. auris AR Bank #381; [15]): 0.98 µg/mL (≈ 3.51 µM); MIC (C. auris AR Bank #383; [16]): 1.95 µg/mL (≈ 6.98 µM); MIC (C. auris AR Bank #382; [17]): 0.98 µg/mL (≈ 3.51 µM); MIC (C. auris AR Bank #388; [18]): 0.98 µg/mL (≈ 3.51 µM); MIC (C. auris AR Bank #389; [19]): 0.98 µg/mL (≈ 3.51 µM); MIC (C. auris AR Bank #385; [20]): 0.49 µg/mL (≈ 1.75 µM); MIC (C. auris AR Bank #387; [21]): 0.98 µg/mL (≈ 3.51 µM) |
